pIC50: −log10 of the molar value. Calls of active or inactive are those of the source. No cut-off for these calls is given here.
How the values were obtained:
[1] = biological target: Transient receptor potential cation channel subfamily A member 1 (Homo sapiens) (UniProt O75762); assay: Antagonist activity at human TRPA1 expressed in HEK293 cells assessed as decrease in flufenamic acid-evoked increase in intracellular calcium level at 10 uM measured for 180 secs with 1 sec interval by Fluo4-AM dye-based fluorescence assay relative to control; type: cell-based
[2] = biological target: High affinity 3',5'-cyclic-AMP phosphodiesterase 7A (Homo sapiens, UniProt Q13946); assay: Inhibition of recombinant human PDE7A using cAMP as substrate after 10 mins by PDE-Glo Phosphodiesterase Assay
[3] = biological target: 3',5'-cyclic-AMP phosphodiesterase 4B (Homo sapiens, UniProt Q07343); assay: Inhibition of recombinant human PDE4B using cAMP as substrate after 10 mins by PDE-Glo Phosphodiesterase Assay
[4] = biological target: Transient receptor potential cation channel subfamily A member 1 (Homo sapiens) (UniProt O75762); assay: Antagonist activity at human TRPA1 expressed in HEK293 cells assessed as decrease in flufenamic acid-evoked increase in intracellular calcium level at 1 uM measured for 180 secs with 1 sec interval by Fluo4-AM dye-based fluorescence assay relative to control; type: cell-based
[5] = biological target: Transient receptor potential cation channel subfamily A member 1 (Homo sapiens) (UniProt O75762); assay: Antagonist activity at human TRPA1 expressed in HEK293 cells assessed as decrease in flufenamic acid-evoked increase in intracellular calcium level at 100 uM measured for 180 secs with 1 sec interval by Fluo4-AM dye-based fluorescence assay relative to control; type: cell-based
[6] = tested on: Rattus norvegicus; assay: Antiallodynic activity in Wistar rat assessed as reduction in oxaliplatin-induced neuropathic pain in early phase by measuring paw withdrawal force at 5 to 10 mg/kg, ip measured after 60 mins by Von Frey test; type: functional, organism-based
[7] = tested on: Rattus norvegicus; assay: Antiallodynic activity in Wistar rat assessed as reduction in oxaliplatin-induced neuropathic pain in late phase by measuring paw withdrawal force at 5 to 10 mg/kg, ip measured after 60 mins by Von Frey test; type: functional, organism-based

Sequence of Transient receptor potential cation channel subfamily A member 1 (Homo sapiens) (O75762 whole entry): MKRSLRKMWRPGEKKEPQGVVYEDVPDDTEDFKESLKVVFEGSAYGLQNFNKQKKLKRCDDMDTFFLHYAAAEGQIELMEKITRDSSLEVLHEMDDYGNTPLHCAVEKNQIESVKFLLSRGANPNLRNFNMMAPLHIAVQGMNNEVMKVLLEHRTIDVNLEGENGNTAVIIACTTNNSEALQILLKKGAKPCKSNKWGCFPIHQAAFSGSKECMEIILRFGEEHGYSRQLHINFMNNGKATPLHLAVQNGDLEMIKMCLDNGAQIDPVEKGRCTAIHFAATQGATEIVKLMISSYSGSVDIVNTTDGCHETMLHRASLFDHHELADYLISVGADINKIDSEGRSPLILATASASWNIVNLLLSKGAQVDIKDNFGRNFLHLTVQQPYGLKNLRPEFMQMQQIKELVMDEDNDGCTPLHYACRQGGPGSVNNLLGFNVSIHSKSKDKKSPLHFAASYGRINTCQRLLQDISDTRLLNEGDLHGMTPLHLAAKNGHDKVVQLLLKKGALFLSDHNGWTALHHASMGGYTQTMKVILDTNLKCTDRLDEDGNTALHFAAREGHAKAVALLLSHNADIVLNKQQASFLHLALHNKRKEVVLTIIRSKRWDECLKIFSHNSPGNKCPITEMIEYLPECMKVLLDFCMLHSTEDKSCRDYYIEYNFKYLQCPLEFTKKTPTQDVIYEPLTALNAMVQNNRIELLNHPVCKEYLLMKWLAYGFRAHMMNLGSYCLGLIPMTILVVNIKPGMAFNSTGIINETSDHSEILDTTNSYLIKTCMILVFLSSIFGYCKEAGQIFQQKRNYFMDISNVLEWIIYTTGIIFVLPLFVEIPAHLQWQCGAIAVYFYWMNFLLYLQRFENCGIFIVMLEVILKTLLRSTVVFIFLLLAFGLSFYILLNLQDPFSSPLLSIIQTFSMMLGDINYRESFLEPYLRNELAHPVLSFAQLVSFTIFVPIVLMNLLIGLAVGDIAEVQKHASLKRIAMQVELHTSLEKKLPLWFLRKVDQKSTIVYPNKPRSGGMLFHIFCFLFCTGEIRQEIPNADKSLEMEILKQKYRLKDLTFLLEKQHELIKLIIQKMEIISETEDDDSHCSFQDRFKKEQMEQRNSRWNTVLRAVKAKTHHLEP
Sequence of 3',5'-cyclic-AMP phosphodiesterase 4B (Q07343 whole entry): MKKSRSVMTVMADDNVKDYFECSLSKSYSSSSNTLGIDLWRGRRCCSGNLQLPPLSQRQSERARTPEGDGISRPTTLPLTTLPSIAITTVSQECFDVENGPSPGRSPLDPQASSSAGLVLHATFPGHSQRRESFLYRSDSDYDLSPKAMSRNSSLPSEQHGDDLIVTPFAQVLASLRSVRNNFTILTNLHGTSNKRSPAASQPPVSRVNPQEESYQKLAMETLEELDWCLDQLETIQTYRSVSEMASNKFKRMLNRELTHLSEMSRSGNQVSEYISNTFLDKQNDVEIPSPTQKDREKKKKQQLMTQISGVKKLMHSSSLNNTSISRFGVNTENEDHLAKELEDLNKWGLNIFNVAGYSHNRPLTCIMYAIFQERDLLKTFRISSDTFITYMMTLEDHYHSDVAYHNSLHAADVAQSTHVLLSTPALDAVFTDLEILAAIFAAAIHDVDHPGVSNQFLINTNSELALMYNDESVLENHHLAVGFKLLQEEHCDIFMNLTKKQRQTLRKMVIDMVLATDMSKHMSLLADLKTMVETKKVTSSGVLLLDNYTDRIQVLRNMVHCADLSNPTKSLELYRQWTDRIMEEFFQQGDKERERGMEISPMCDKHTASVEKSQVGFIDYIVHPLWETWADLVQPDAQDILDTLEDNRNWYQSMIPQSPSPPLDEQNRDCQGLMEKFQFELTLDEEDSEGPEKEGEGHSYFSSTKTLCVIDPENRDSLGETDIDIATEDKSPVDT
Sequence of High affinity 3',5'-cyclic-AMP phosphodiesterase 7A (Q13946 whole entry): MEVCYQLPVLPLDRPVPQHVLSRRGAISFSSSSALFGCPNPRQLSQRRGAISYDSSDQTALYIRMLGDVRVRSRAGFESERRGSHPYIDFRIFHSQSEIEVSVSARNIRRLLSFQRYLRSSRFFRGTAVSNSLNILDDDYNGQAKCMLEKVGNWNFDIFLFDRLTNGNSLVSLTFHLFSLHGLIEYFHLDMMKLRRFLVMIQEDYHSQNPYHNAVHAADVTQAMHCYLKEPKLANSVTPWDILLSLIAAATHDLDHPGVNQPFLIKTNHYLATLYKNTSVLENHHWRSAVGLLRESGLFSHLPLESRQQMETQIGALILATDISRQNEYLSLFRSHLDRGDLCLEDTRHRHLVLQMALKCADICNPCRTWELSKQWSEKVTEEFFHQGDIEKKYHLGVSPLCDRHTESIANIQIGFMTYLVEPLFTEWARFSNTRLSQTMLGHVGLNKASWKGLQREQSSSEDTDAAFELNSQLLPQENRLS

| SMILES | inhibition [1] [%] | pIC50 [2] | pIC50 [3] | inhibition [4] [%] | inhibition [5] [%] | Activity [6] | Activity [7] |
| --- | --- | --- | --- | --- | --- | --- | --- |
| CCCOc1nc2c(c(=O)n(C)c(=O)n2C)n1CCCC(=O)Nc1cc(C(C)(C)C)ccc1O | 1 | 4.39 | 4.83 | 3 | 38 |  |  |
| COc1nc2c(c(=O)n(C)c(=O)n2C)n1CCCC(=O)Nc1cccc(Cl)c1 |  | < 3.70 | < 3.70 |  | 9 |  |  |
| CCOc1nc2c(c(=O)n(C)c(=O)n2C)n1CC(=O)Nc1ccc(Cl)cc1 |  | < 3.70 | < 3.70 |  | 7 |  |  |
| COc1nc2c(c(=O)n(C)c(=O)n2C)n1CCCC(=O)NCc1ccccc1Cl |  | < 3.70 | < 3.70 |  | 16 |  |  |
| CCOc1nc2c(c(=O)n(C)c(=O)n2C)n1CC(=O)Nc1ccc(C(C)C)cc1 |  | < 3.70 | < 3.70 |  | 20 |  |  |
| COc1nc2c(c(=O)n(C)c(=O)n2C)n1CCCC(=O)Nc1ccc(C(C)C)cc1 |  | < 3.70 | < 3.70 |  | 18 |  |  |
| CCCOc1nc2c(c(=O)n(C)c(=O)n2C)n1CCCC(=O)Nc1ccc(C(C)C)cc1 |  | 4.42 | 4.75 |  | 11 |  |  |
| CCOc1nc2c(c(=O)n(C)c(=O)n2C)n1CCCC(=O)Nc1ccc(C(C)(C)C)cc1 |  | 4.27 | 4.37 |  | 0 |  |  |
| COc1nc2c(c(=O)n(C)c(=O)n2C)n1CC(=O)NCc1ccccc1Cl |  | < 3.70 | < 3.70 |  | 3 |  |  |
| CC(C)C[C@H](CN)CC(=O)O |  |  |  |  |  | Active | Active |
| COc1nc2c(c(=O)n(C)c(=O)n2C)n1CCCC(=O)Nc1ccc(Cl)cc1 |  | < 3.70 | < 3.70 |  | 15 |  |  |
